Here are results for 3 compounds from patent US20240060047A1, “CELLS WITH SUSTAINED TRANSGENE EXPRESSION” (BlueRock Therapeutics LP, priority 2019, published 2024).

Series [1] relates to GAPDH locus. Kind of series: gRNA cutting efficiency by ICE analysis, GAPDH locus. Format: cell-based. The settings on record: RNP with Cas9 nucleofected into human PSCs, gDNA at 72 hours. The protocol:
(§1) CRISPR-Cas9 gene editing was performed to insert transgenes into the intended STEL sites in the following experiments. Three guide RNAs (gRNAs) were designed computationally to target the 3′ UTR of GAPDH proximal to the stop codon. Five gRNAs were designed computationally to target the 3′ UTR of RPL13A proximal to the stop codon. These gRNAs were designed to have a low number of off-target sites and have a high predicted activity against the target sequence.
(§2) To test gRNA cutting efficiency, gRNAs complexed with Cas9 nuclease were delivered as ribonucleoproteins (RNPs) separately into human PSCs via nucleofection. At 72 hours following nucleofection, gDNA was extracted from each pool of nucleofected cells. A region around the GAPDH or RPL13A locus intended cut site was PCR-amplified using the following primers: […]
(§3) Overall cutting efficiency of each gRNA was determined by Inference of CRISPR Edits (ICE) Analysis by comparing a Sanger sequencing chromatogram from unedited cells to the Sanger sequencing chromatogram from each gRNA condition.

The subject of series [2] is RPL13A locus. Kind of series: gRNA cutting efficiency by ICE analysis, RPL13A locus. Particulars: RNP with Cas9 nucleofected into human PSCs, gDNA at 72 hours. The format is cell-based. As to the method: as §1, §2, §3
The test system of series [3] is GAPDH-targeted RapaCasp9 PSC line. Put plainly: Flow cytometric analysis of cleaved Caspase 3 after rapamycin treatment. Format: cell-based, human. Particulars: 5nM or 10 nM rapamycin, 24 hours of treatment. As to the method: A GAPDH-targeted RapaCasp9 PSC line was treated with either 5nM or 10 nM of rapamycin for 1, 2, 4 or 24 hours, and cells were harvested for flow cytometric analysis after each timepoint (FIG. 17). The primary antibody used was an anti-human/mouse cleaved caspase-3 conjugated to an Alexa Fluor® 488 […]. The primary antibody detects human and mouse Caspase 3 cleaved at Asp175. Caspase 3 is an executioner caspase that functions downstream of the initiator caspase, Caspase 9, in the apoptotic cascade. […] Upon induction of apoptosis through either cell stress or activation, it undergoes proteolysis into cleaved Caspase 3 subunits. […] There was negligible detection of cleaved Caspase 3 for edited PSCs not treated with rapamycin.

Take “5′-CUUCCUCUUGUGCUCUUGCU-3′ (SEQ ID NO:7) (listed as RNA, chemistry not given here) [GAPDH gRNA, guide RNA targeting the 3′ UTR of GAPDH proximal to the stop codon]”: in series [1], the relative cutting efficiency entry is reported as “highest relative cutting efficiencies”.

Turning to “5′-GGAAGGGCAGGCAACGCAUG-3′ (SEQ ID NO:8) (listed as RNA, chemistry not given here) [RPL13A gRNA, guide RNA targeting the 3′ UTR of RPL13A proximal to the stop codon]”, the relative cutting efficiency result in series [2] is “highest relative cutting efficiencies”. As to `CO[C@H]1C[C@@H]2CC[C@@H](C)[C@@](O)(O2)C(=O)C(=O)N2CCCC[C@H]2C(=O)O[C@H]([C@H](C)C[C@@H]2CC[C@@H](O)[C@H](OC)C2)CC(=O)[C@H](C)/C=C(\C)[C@@H](O)[C@@H](OC)C(=O)[C@H](C)C[C@H](C)/C=C/C=C/C=C/1C` [rapamycin], the “cells staining for cleaved Caspase 3” value in series [3] is on record as over 99%.
